Experimental data from patent US20060216792A1, “Process for producing 2-0-alpha-d-glucopyranosyl-l-ascorbic acid” (priority 2002, published 2006).

Experiment: properties of crystalline AA-2G (stability, hygroscopicity, solubility)
Assay type: physicochemical
Text: Different from the case of L-ascorbic acid, AA-2G hardly causes Maillard reaction. […] Also, by using AA-2G together with vitamins E and P, those biological activities can be increased. • (4) It is possible that AA-2G is produced and metabolized in living bodies when L-ascorbic acid and α-glucosyl saccharide are orally in taken. […] AA-2G can be advantageously used as vitamin C-reinforcement, taste-improving agent, acidifier, stabilizer, and the like for vitamin in the form of powder, granule, tablet, and the like, or foods such as cream, chocolate, chewing gum, instant juice, instant seasoning, and the like. • (6) Crystalline AA-2G is substantially non- or hardly hygroscopic.

For `O=C1O[C@H]([C@@H](O)CO)C(O)=C1O[C@H]1O[C@H](CO)[C@@H](O)[C@H](O)[C@H]1O` [AA-2G, 2-O-α-D-glucopyranosyl-L-ascorbic acid], the solubility in water was “high solubility” and the stability (crystalline product of Example 1) was “sufficient stability”.
